Experimental data reported in US20250376476A1, “Crystalline forms of a HER2 tyrosine kinase inhibitor” (Boehringer Ingelheim International GmbH, priority 2024, published 2025).
Values belong to the molecule of their own block, whether it stands above or below them.

Columns and labels:
Type in all cases: physicochemical
[1] = Form IV slurry experiments in aqueous organic solvents with heat-cool cycles, solids analyzed by XRPD; conditions: 20 to 50° C. heat-cool cycles
Procedure: Zongertinib form IV (e.g. prepared according to any one of the procedures of reference example 1.3) was slurried in different aqueous organic solvent systems (12V, composition according to table 1) at a temperature ranging from 20 to 50° C. using a magnetic stir bar. Heat-cool-cycles were conducted using automation available on the Junior robot and as per the below program: • 1. Set stirring to 350 rpm (by means of magnetic stir bars) • 2. Heat to 50° C. (10° C./minute) • 3. Hold at 50° C. for 150 minutes • 4. Cool to 20° C. (−1° C./minute) • 5. Hold at 20° C. for 120 minutes • 6. Heat to 50° C. (5° C./minute) • 7. Hold at 50° C. for 120 minutes • 8. Cool to 20° C. (−1° C./minute) • 9. Set stirring to 0 rpm • 10. Hold at 20° C. for 16 hrs
The solids were collected and analyzed by XRPD.
(§1) XRPD was performed with a Bruker D8 Discover X-ray diffractometer. The instrument detector allows for two-dimensional diffractograms to be acquired. Solid samples were placed on a zero-background diffraction plate. The results were processed using DIFFRAC.EVA software. The diffraction pattern was integrated from two-dimensional to one-dimensional. The Kα2 contribution was stripped, no smoothing or background correction was performed. A typical precision of the 2-Theta values is in the range of ±0.2° 2-Theta, preferably in the range of ±0.1° 2-Theta. Thus, a reflection that usually appears at 7.0 2-Theta for example can appear between 6.8° and 7.2° 2-Theta, preferably between 6.9° and 7.1° 2-Theta on most X-ray diffractometers under standard conditions.

[2] = Suspension of form IV and form III stirred at 35° C. for 18 hrs, solid analyzed by XRPD; conditions: mixture of form IV and form III
Procedure: (§2) A suspension of zongertinib form IV (e.g. prepared according to any one of the procedures of reference example 1.3) and zongertinib form III (e.g. prepared according to reference example 1.2) in 20V of 1:1 (vol:vol) IPAc/water was stirred using overhead agitation at 35° C. for 18 hrs. The solid was collected and analyzed by XRPD confirming receipt of form XX.
as §2, with “water” for “1:1 (vol:vol) IPAc/water”
as §1, with “Thus, a reflection that usually appears at 7.0 2-Theta for example can appear between 6.8° and 7.2° 2-Theta, preferably between 6.9° and 7.1° 2-Theta on most X-ray diffractometers under standard conditions.” left out

[3] = Thermal gravimetric analysis (TGA); conditions: ambient to 600° C., heating rate 20° C./min
Procedure: TGA was performed with a TA Instruments TGA 550. Samples (5 mg) were heated in aluminium pans with a sealed aluminium lid from ambient temperature to 600° C. at a heating rate of 20° C./min. Processing was completed using TRIOS software.

[4] = Polarized light microscopy (PLM), crystal habit
Excerpt: Crystal habits of zongertinib forms XXIV, XIX and XX have been elucidated using polarized light microscopy. Depending on the starting material, form XVIII can be obtained in different crystal shapes.

[5] = Excessive drying of form XXIV and/or form XIX; conditions: typically temperatures >50° C. under vacuum
Procedure: Form XVIII is formed upon excessive drying of form XXIV and/or form XIX (e.g. prepared according to any one of examples 1.1 to 1.4 herein). Typically, drying is performed at temperatures >50° C. under vacuum.

TGA sample decomposition start temperature ([3]; listed as form XVIII): about 394 °C
Crystal Habit ([4]; listed as XVIII (drying of XIX)): lath-shaped crystals
Crystal Habit ([4]; listed as XVIII (drying of XXIV)): plate-shaped and lath shaped crystals
SMILES: C=CC(=O)NC1CCN(c2ncc3ncnc(Nc4ccc(Oc5ccc6c(c5)ncn6C)c(C)c4)c3n2)CC1 [Form XVIII, zongertinib]

TGA sample decomposition start temperature ([3]; listed as form XX): about 393 °C
Crystal Habit ([4]; listed as XX): needle-shaped crystals
SMILES: C=CC(=O)NC1CCN(c2ncc3ncnc(Nc4ccc(Oc5ccc6c(c5)ncn6C)c(C)c4)c3n2)CC1 [Form XX, zongertinib]

Form obtained upon excessive drying [5]: Form XVIII
TGA sample decomposition start temperature ([3]; listed as form XXIV): about 415 °C
Crystal Habit ([4]; listed as XXIV): plate-shaped and lath shaped crystals
SMILES: C=CC(=O)NC1CCN(c2ncc3ncnc(Nc4ccc(Oc5ccc6c(c5)ncn6C)c(C)c4)c3n2)CC1 [Form XXIV, zongertinib]

Continued, molecule first:

SMILES: C=CC(=O)NC1CCN(c2ncc3ncnc(Nc4ccc(Oc5ccc6c(c5)ncn6C)c(C)c4)c3n2)CC1 [Form IV, zongertinib]
XRPD results after slurry ([1]; 12V 1:1 (vol:vol) ACN:water): Form XIX
XRPD results after slurry ([1]; 12V 1:1 (vol:vol) EtOH:water): Form XIX
XRPD results after slurry ([1]; 12V 1:1 (vol:vol) IPAc:water): Form XXIV
XRPD results after slurry ([1]; 12V 2:1 (vol:vol) THF:water): Form XXIV
Solid form by XRPD after stirring suspension ([2]; 20V of 1:1 (vol:vol) IPAc/water): form XX
Solid form by XRPD after stirring suspension ([2]; 20V of water): form XX

SMILES: C=CC(=O)NC1CCN(c2ncc3ncnc(Nc4ccc(Oc5ccc6c(c5)ncn6C)c(C)c4)c3n2)CC1 [Form XIX, zongertinib]
TGA sample decomposition start temperature ([3]; listed as form XIX): about 327 °C
Crystal Habit ([4]; listed as XIX): lath-shaped crystals
